Measurements as given in patent US20260317329A1, “DRUG LINKERS AND ANTIBODY CONJUGATES THEREOF” (Ambrx, Inc., priority 2022, published 2026).

Tests used:
Format in all cases: cell-based
[1] = test system: 786-O (CD70 positive) cells; assay: In vitro cytotoxicity in CD70 positive 786-O cells (CellTiter-Glo 2.0, 4 days); details: Homo sapiens; for Emax at 0.025 µM: maximal killing at 25 nM
Protocol: (§1) Small molecule duocarmycin analogs (compounds 4, 13, 15, 17 and 38) and anti-CD70 ADCs (anti-CD70-12, anti-CD70-14, anti-CD70-16 and anti-CD70-18) were evaluated for cytotoxicity. Briefly, 786-0 (CD70 positive) cells were seeded into 96-well clear bottom white plate at 1,000 cells/well and incubated overnight in a 37° C. and 5% CO2 incubator. NCI-H929 (CD70 negative) cells were seeded 30,000 cells/well just before the time of treatment of test articles. The serially diluted small molecule drugs or anti-CD70 ADCs were added to the wells and the plates were incubated for 4 days in a 37° C. and 5% CO2 incubator. At the end of incubation, CellTiter-Glo2.0 Reagent (Promega, Madison, WI) was added to the room temperature equilibrated plates and luminescence was measured in a SpectraMax M5E plate reader. The relative viability was calculated as a percentage of untreated cells. The half-maximal inhibitory concentration (IC50) was determined by a nonlinear 4-parameter dose-response curve fitting using GraphPad Prism (GraphPad Software, San Diego, CA). The maximal killing (Emax) was determined by subtracting the % viability at the indicated dose from 100%.

[2] = test system: NCI-H929 (CD70 negative) cells; assay: In vitro cytotoxicity in CD70 negative NCI-H929 cells (CellTiter-Glo 2.0, 4 days); details: Homo sapiens, 96 h; for Emax at 0.025 µM: maximal killing at 25 nM
Protocol: as §1

[3] = test system: HepG2 (GPC3 positive) cells; assay: In vitro cytotoxicity in GPC3 positive HepG2 cells (CellTiter-Glo 2.0, 3 days); details: Homo sapiens, 72 h; for Emax at 0.03 µM: maximal killing at 30 nM
Protocol: (§2) Anti-GPC3 ADCs were prepared via conjugation of GPC3 clone 1 mAb containing non-natural amino acid pAF with each of compounds 12, 14, 16 and 18. The corresponding ADCs (hereinafter, anti-GPC3-12, anti-GPC3-14, anti-GPC3-16 and anti-GPC3-18 respectively) and small molecule duocarmycin analogs (compounds 15 and 17) were evaluated for cytotoxicity. Briefly, HepG2 and SNU449 cells were seeded into 96-well white opaque plate at 3,000 cells/well and incubated overnight in a 37° C. and 5% CO2 incubator. The serially diluted small molecule drugs or anti-GPC3 ADCs were added to the wells and the plates were incubated for 3 days in a 37° C. and 5% CO2 incubator. At the end of incubation, CellTiter-Glo2.0 Reagent (Promega, Madison, WI) was added to the room temperature equilibrated plates and luminescence was measured in a SpectraMax M5E plate reader. The relative viability was calculated as a percentage of untreated cells. The half-maximal inhibitory concentration (IC50) was determined by a nonlinear 4-parameter dose-response curve fitting using GraphPad Prism (GraphPad Software, San Diego, CA). The maximal killing (Emax) was determined by subtracting the % viability at the indicated dose from 100%.

[4] = test system: SNU449 (GPC3 negative) cells; assay: In vitro cytotoxicity in GPC3 negative SNU449 cells (CellTiter-Glo 2.0, 3 days); details: Homo sapiens, SNU-449, 72 h; for Emax at 0.03 µM: maximal killing at 30 nM
Protocol: as §2

[5] = 786-0, 96 h, 786-O (CD70 Positive), 4 days

| SMILES | IC50 [1, 5] | Emax at 0.025 µM [1, 5] | IC50 [2] | Emax at 0.025 µM [2] | IC50 [3] | Emax at 0.03 µM [3] | IC50 [4] | Emax at 0.03 µM [4] | IC50 ([1]; 786-0 (CD70-positive), first test of benchmark free drug and ADC) |
| --- | --- | --- | --- | --- | --- | --- | --- | --- | --- |
| COc1cc2cc(C(=O)N3C[C@@H](CCl)c4c3cc(O)c3ccccc43)[nH]c2c(OC)c1OC [Compound 38, reference compound] | 0.561 nM | 97.4% | 0.791 nM | 99.5% |  |  |  |  |  |
| COc1cc2cc(C(=O)N3C[C@@H](CCl)c4c3cc(O)c3[nH]c(C(=O)N5CCc6cc(OCCN7CCOCC7)ccc65)cc43)[nH]c2c(OC)c1OC [Compound 17] | 0.0179 nM | 99.3% | 2.59 nM | 97.6% | 0.217 nM | 97.6% | 0.245 nM | 94.2% |  |
| COc1cc2cc(C(=O)N3C[C@@H](CCl)c4c3cc(O)c3[nH]c(C(=O)N5CCc6ccncc65)cc43)[nH]c2c(OC)c1OC [Compound 15] | 0.0626 nM | 98.1% | 9.12 nM | 82.4% | 0.41 nM | 96.5% | 0.427 nM | 91.1% |  |
| COC(=O)c1cc2c3c(cc(O)c2[nH]1)N(C(=O)c1cc2cc(OC)c(OC)c(OC)c2[nH]1)C[C@H]3CCl [Compound 39, (S)-seco-duocarmycin SA, reference compound] |  |  |  |  |  |  |  |  | 0.065 nM |
| COc1cc2cc(C(=O)N3C[C@@H](CCl)c4c3cc(O)c3[nH]c(C(=O)N5CCc6ccccc65)cc43)[nH]c2c(OC)c1OC [Compound 4, (S)-(8-(chloromethyl)-4-hydroxy-6-(5,6,7-trimethoxy-1H-indole-2-carbonyl)-3,6,7,8-tetrahydropyrrolo[3,2-e]indol-2-yl)(indolin-1-yl)methanone] | 0.0089 nM | 99% | 0.804 nM | 99.7% |  |  |  |  |  |
| COc1cc2c(cc1OC)N(C(=O)c1cc3c4c(cc(O)c3[nH]1)N(C(=O)c1cc3cc(OC)c(OC)c(OC)c3[nH]1)C[C@H]4CCl)CC2 [Compound 13] | 0.0166 nM | 99.2% | 1.79 nM | 99.5% |  |  |  |  |  |
